The text below walks through data of publication PMC9667588, “Synthesis and bioactivities evaluation of quinazolin-4(3H)-one derivatives as α-glucosidase inhibitors” (BMC Chemistry, 2022).

The term melting point denotes the temperature, or range, at which the solid turns liquid.

Entries after “also recorded” stand apart in the source; their conditions may differ. Read-outs that look alike come from different tables or passages of the source.

Data set [1] has as its system α-amylase. Details: method as in doi:10.1016/j.molstruc.2022.133650. The settings on record: at 108 μM; cited from earlier work.
Data set [2] has as its target T1, α-glucosidase (Saccharomyces cerevisiae, UniProt P53341). Put plainly: α-glucosidase inhibition assay. It counts as biochemical.
Data set [3] has as its target T1, α-glucosidase. Put plainly: Enzyme kinetic studies (Lineweaver–Burk plot, secondary plot). The following applies: Km increased, Vmax unchanged. It counts as biochemical. How it is done: A Lineweaver–Burk plot was generated to identify the type of inhibition and the Michaelis–Menten constant (Km) value was determined from the plot between the reciprocal of the substrate concentration (1/[S]) and reciprocal of enzyme rate (1/V) over various inhibitor concentrations. The experimental inhibitor constant (Ki) value was constructed by secondary plots of the inhibitor concentration [I] versus Km.

The target of data set [4] is T1, α-glucosidase. The settings on record: cited from earlier work.
Data set [5] has as its system breast cancer cell line MCF-7. Details: method as in PMID 30366316. The following applies: cited from earlier work.

T1 sequence (P53341 whole entry): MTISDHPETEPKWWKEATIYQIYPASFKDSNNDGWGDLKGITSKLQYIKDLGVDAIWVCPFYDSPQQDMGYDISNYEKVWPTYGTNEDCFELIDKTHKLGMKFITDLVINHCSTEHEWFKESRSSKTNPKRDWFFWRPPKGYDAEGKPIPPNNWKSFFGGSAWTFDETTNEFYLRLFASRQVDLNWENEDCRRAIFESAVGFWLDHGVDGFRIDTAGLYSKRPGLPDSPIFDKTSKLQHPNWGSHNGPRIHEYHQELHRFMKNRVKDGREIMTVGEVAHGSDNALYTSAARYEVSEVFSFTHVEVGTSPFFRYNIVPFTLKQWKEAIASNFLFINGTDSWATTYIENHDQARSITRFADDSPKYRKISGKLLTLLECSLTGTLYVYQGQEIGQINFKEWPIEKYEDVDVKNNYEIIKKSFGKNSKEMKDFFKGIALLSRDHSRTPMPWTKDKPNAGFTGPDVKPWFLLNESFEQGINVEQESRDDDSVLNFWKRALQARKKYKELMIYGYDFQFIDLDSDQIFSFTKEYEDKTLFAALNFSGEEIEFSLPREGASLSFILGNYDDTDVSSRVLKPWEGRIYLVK

`COc1cc(-c2nc3ccccc3c(=O)[nH]2)ccc1OCC(=O)Nc1c(C)cccc1C` [Compound 7j, N-(2,6-dimethylphenyl)-2-(2-methoxy-4-(4-oxo-3,4-dihydroquinazolin-2-yl)phenoxy)acetamide] showed a melting point of 215 to 217 °C.

`COc1cc(-c2nc3ccccc3[nH]2)ccc1OCC(=O)Nc1ccc(F)cc1` [F]: the “% inhibition against α-amylase” value in data set [1] is 45.0 ± 0.8%.

Consider `COc1cc(-c2nc3ccccc3c(=O)[nH]2)ccc1OCC(=O)Nc1ccc(O)cc1` [Compound 7m, N-(4-hydroxyphenyl)-2-(2-methoxy-4-(4-oxo-3,4-dihydroquinazolin-2-yl)phenoxy)acetamide], for which, in data set [2], the “activity against α-glucosidase under the tested concentration” value (from here on “activity against α-glucosidase”) was “did not show any activity”.

The molecule `COc1cc(-c2nc3ccccc3c(=O)[nH]2)ccc1OCC(=O)Nc1ccc(F)cc1` [Compound 7c, N-(4-fluorophenyl)-2-(2-methoxy-4-(4-oxo-3,4-dihydroquinazolin-2-yl)phenoxy)acetamide] returned a melting point of 216 to 218 °C.

Turning to `COc1cc(-c2nc3ccccc3c(=O)[nH]2)ccc1OCC(=O)Nc1ccc(Cl)cc1` [Compound 7f, N-(4-chlorophenyl)-2-(2-methoxy-4-(4-oxo-3,4-dihydroquinazolin-2-yl)phenoxy)acetamide], the melting point was in the range of 211 to 213 °C.

With `CCc1ccc(NC(=O)COc2ccc(-c3nc4ccccc4c(=O)[nH]3)cc2OC)cc1` [Compound 7k, N-(4-ethylphenyl)-2-(2-methoxy-4-(4-oxo-3,4-dihydroquinazolin-2-yl)phenoxy)acetamide], the melting point lay within 195 to 197 °C.

Regarding `COc1cc(-c2nc3ccccc3c(=O)[nH]2)ccc1OCC(=O)Nc1ccccc1Cl` [Compound 7d, N-(2-chlorophenyl)-2-(2-methoxy-4-(4-oxo-3,4-dihydroquinazolin-2-yl)phenoxy)acetamide], the melting point is 207 to 209 °C.

With `COc1cc(-c2nc3ccccc3c(=O)[nH]2)ccc1OCC(=O)Nc1cccc(Cl)c1` [Compound 7e, N-(3-chlorophenyl)-2-(2-methoxy-4-(4-oxo-3,4-dihydroquinazolin-2-yl)phenoxy)acetamide], the melting point lay in the range of 203 to 205 °C.

Molecule `COc1cc(-c2nc3ccccc3c(=O)[nH]2)ccc1OCC(=O)NCc1ccccc1` [Compound 7r, N-benzyl-2-(2-methoxy-4-(4-oxo-3,4-dihydroquinazolin-2-yl)phenoxy)acetamide] had a melting point of 194 to 196 °C.

Regarding `COc1cc(-c2nc3ccccc3c(=O)[nH]2)ccc1OCC(=O)Nc1ccc(C)cc1` [Compound 7i, 2-(2-methoxy-4-(4-oxo-3,4-dihydroquinazolin-2-yl)phenoxy)-N-(p-tolyl)acetamide], the melting point is 199 to 201 °C.

On to `COc1cc(-c2nc3ccccc3c(=O)[nH]2)ccc1OCC(=O)Nc1ccc(Br)cc1` [Compound 7g, N-(4-bromophenyl)-2-(2-methoxy-4-(4-oxo-3,4-dihydroquinazolin-2-yl)phenoxy)acetamide], for which the melting point was 203 to 205 °C.

For the molecule `COc1cc(-c2nc3ccccc3c(=O)[nH]2)ccc1OCC(=O)Nc1ccccc1F` [Compound 7b, N-(2-fluorophenyl)-2-(2-methoxy-4-(4-oxo-3,4-dihydroquinazolin-2-yl)phenoxy)acetamide], the melting point was 222 to 225 °C. In data set [3], the type of inhibition result is given as “competitive type; also recorded: competitive inhibition; also recorded: competitive inhibitor”.

For `COc1ccc(NC(=O)COc2ccc(-c3nc4ccccc4c(=O)[nH]3)cc2OC)cc1` [Compound 7l, 2-(2-methoxy-4-(4-oxo-3,4-dihydroquinazolin-2-yl)phenoxy)-N-(4-methoxyphenyl)acetamide], the melting point was 205 to 207 °C. The “activity against α-glucosidase” value in data set [2] is on record as “did not show any activity”.

Regarding `O=C(Cn1cc(COc2ccc(-c3nc4ccccc4c(=O)[nH]3)cc2)nn1)Nc1ccccc1` [C], the type of inhibition result in data set [4] is listed as “competitive”.

`COc1cc(-c2nc3ccccc3c(=O)[nH]2)ccc1OCC(=O)NCc1ccc(C)cc1` [Compound 7p, 2-(2-methoxy-4-(4-oxo-3,4-dihydroquinazolin-2-yl)phenoxy)-N-(4-methylbenzyl)acetamide] came in with a melting point of 191 to 193 °C.

Consider `COc1cc(-c2nc3ccccc3c(=O)[nH]2)ccc1OCC(=O)Nc1ccccc1` [Compound 7a, 2-(2-methoxy-4-(4-oxo-3,4-dihydroquinazolin-2-yl)phenoxy)-N-phenylacetamide], for which the melting point was in the range of 192 to 194 °C.

`COc1cc(-c2nc3ccccc3c(=O)[nH]2)ccc1OCC(=O)Nc1ccc2ccccc2c1` [Compound 7o, 2-(2-methoxy-4-(4-oxo-3,4-dihydroquinazolin-2-yl)phenoxy)-N-(naphthalen-2-yl)acetamide] had a melting point of 217 to 219 °C.

As to `COc1cc(-c2nc3ccccc3c(=O)[nH]2)ccc1OCC(=O)Nc1ccc([N+](=O)[O-])cc1` [Compound 7n, 2-(2-methoxy-4-(4-oxo-3,4-dihydroquinazolin-2-yl)phenoxy)-N-(4-nitrophenyl)acetamide], in data set [2], the “activity against α-glucosidase” value was “did not show any activity”.

As for `O=c1c2ccccc2nc(SCc2cn(Cc3ccc(Br)cc3)nn2)n1CCc1ccccc1` [B], the “toxicity against breast cancer cell line MCF-7” value in data set [5] was “no toxicity”.

On to `COc1cc(-c2nc3ccccc3c(=O)[nH]2)ccc1OCC(=O)NCc1ccc(F)cc1` [Compound 7q, N-(4-fluorobenzyl)-2-(2-methoxy-4-(4-oxo-3,4-dihydroquinazolin-2-yl)phenoxy)acetamide], for which the melting point was in the range of 224 to 226 °C.

On to `COc1cc(-c2nc3ccccc3c(=O)[nH]2)ccc1OCC(=O)Nc1ccccc1C` [Compound 7h, 2-(2-methoxy-4-(4-oxo-3,4-dihydroquinazolin-2-yl)phenoxy)-N-(o-tolyl)acetamide], for which the melting point fell in the range of 196 to 198 °C.
